Measured values published in the supplement of paper PMC10307832.

How the values were obtained:
Test in all cases: relative viability (nuclei count vs DMSO), 5 days (fraction); higher = more cells survive
PC-3 [JPC-3] = system: PC-3 [JPC-3]
Outline: (§1)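 Relative viability is defined as nuclei in treated wells over nuclei in vehicle wells. Duplicate plates were run and medians reported. Lung cancer cell lines in 1536-well plates were dosed by pin tool one day after seeding, with one drug or with a fixed anchor-drug dose plus five library-drug doses (not always all listed) in √10 steps, and nuclei were counted after 5 days.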

NCI-H2342 = system: NCI-H2342
Outline: as §1

NCI-H647 = system: NCI-H647
Outline: as §1

NCI-H1666 = system: NCI-H1666
Outline: as §1

NCI-H2085 = system: NCI-H2085
Outline: as §1

NCI-H2170 = system: NCI-H2170
Outline: as §1

COR-L 105 = system: COR-L 105
Outline: as §1

SW 1573 = system: SW 1573
Outline: as §1

LOU-NH91 = system: LOU-NH91
Outline: as §1

NCI-H650 = system: NCI-H650
Outline: as §1

201T = system: 201T
Outline: as §1

EKVX = system: EKVX
Outline: as §1

BEN = system: BEN
Outline: as §1

HCC-827 = system: HCC-827
Outline: as §1

NCI-H1975 = system: NCI-H1975
Outline: as §1

NCI-H1437 = system: NCI-H1437
Outline: as §1

NCI-H2087 = system: NCI-H2087
Outline: as §1

LU99A = system: LU99A
Outline: as §1

H3255 = system: H3255
Outline: as §1

LCLC-97TM1 = system: LCLC-97TM1
Outline: as §1

EPLC-272H = system: EPLC-272H
Outline: as §1

For `COc1cc2nccc(Oc3ccc(NC(=O)Nc4cc(C)on4)c(Cl)c3)c2cc1OC` [Tivozanib] + COc1cc2c(Oc3ccc(NC(=O)C4(C(=O)Nc5ccc(F)cc5)CC4)cc3F)ccnc2cc1OCCCN1CCOCC1 [Foretinib] (partner 0.25 µM), the relative viability (PC-3 [JPC-3]; first compound 0.005 µM) was 1.01, the relative viability (PC-3 [JPC-3]; first compound 0.01581 µM) was 1.07 and the relative viability (PC-3 [JPC-3]; first compound 0.05 µM) was 1.07. For the same molecule, the relative viability (PC-3 [JPC-3]; first compound 0.1581 µM) was 1.06, the relative viability (PC-3 [JPC-3]; first compound 0.5 µM) was 1.01 and the relative viability (NCI-H2342; first compound 0.005 µM) was 0.96. It also gave a relative viability (NCI-H2342; first compound 0.01581 µM) of 1.11, a relative viability (NCI-H2342; first compound 0.05 µM) of 1.11 and a relative viability (NCI-H2342; first compound 0.5 µM) of 1.05. It also gave a relative viability (NCI-H647; first compound 0.005 µM) of 1.05, a relative viability (NCI-H647; first compound 0.01581 µM) of 1.28 and a relative viability (NCI-H647; first compound 0.05 µM) of 1.26. The relative viability (NCI-H647; first compound 0.1581 µM) was 1.13, the relative viability (NCI-H647; first compound 0.5 µM) was 1.2 and the relative viability (NCI-H1666; first compound 0.005 µM) was 0.973. For the same molecule, the relative viability (NCI-H1666; first compound 0.01581 µM) was 0.971, the relative viability (NCI-H1666; first compound 0.05 µM) was 1.04 and the relative viability (NCI-H1666; first compound 0.1581 µM) was 0.963. It also gave a relative viability (NCI-H1666; first compound 0.5 µM) of 0.999, a relative viability (NCI-H2085; first compound 0.005 µM) of 0.883 and a relative viability (NCI-H2085; first compound 0.01581 µM) of 0.884. For the same molecule, the relative viability (NCI-H2085; first compound 0.05 µM) was 0.831, the relative viability (NCI-H2085; first compound 0.1581 µM) was 1.02 and the relative viability (NCI-H2085; first compound 0.5 µM) was 1.01. For the same molecule, the relative viability (NCI-H2170; first compound 0.005 µM) was 0.943, the relative viability (NCI-H2170; first compound 0.01581 µM) was 0.982 and the relative viability (NCI-H2170; first compound 0.05 µM) was 0.975. The relative viability (NCI-H2170; first compound 0.1581 µM) was 1.02, the relative viability (NCI-H2170; first compound 0.5 µM) was 1.06 and the relative viability (COR-L 105; first compound 0.005 µM) was 1.06. The relative viability (COR-L 105; first compound 0.01581 µM) was 1.06, the relative viability (COR-L 105; first compound 0.05 µM) was 1.13 and the relative viability (COR-L 105; first compound 0.1581 µM) was 1.23. It also gave a relative viability (COR-L 105; first compound 0.5 µM) of 1.11, a relative viability (SW 1573; first compound 0.005 µM) of 0.784 and a relative viability (SW 1573; first compound 0.01581 µM) of 0.828. For the same molecule, the relative viability (SW 1573; first compound 0.05 µM) was 0.827, the relative viability (SW 1573; first compound 0.1581 µM) was 0.886 and the relative viability (SW 1573; first compound 0.5 µM) was 0.903. The relative viability (LOU-NH91; first compound 0.005 µM) was 0.874, the relative viability (LOU-NH91; first compound 0.01581 µM) was 0.974 and the relative viability (LOU-NH91; first compound 0.05 µM) was 0.993. The relative viability (LOU-NH91; first compound 0.1581 µM) was 0.982, the relative viability (LOU-NH91; first compound 0.5 µM) was 0.962 and the relative viability (NCI-H650; first compound 0.005 µM) was 1. It also gave a relative viability (NCI-H650; first compound 0.01581 µM) of 1.02, a relative viability (NCI-H650; first compound 0.05 µM) of 0.994 and a relative viability (NCI-H650; first compound 0.1581 µM) of 1.02. The relative viability (NCI-H650; first compound 0.5 µM) was 0.928, the relative viability (201T; first compound 0.005 µM) was 1.14 and the relative viability (201T; first compound 0.01581 µM) was 1.15. The relative viability (201T; first compound 0.05 µM) was 1.08, the relative viability (201T; first compound 0.1581 µM) was 1.08 and the relative viability (201T; first compound 0.5 µM) was 1.16. The relative viability (EKVX; first compound 0.005 µM) was 0.695, the relative viability (EKVX; first compound 0.01581 µM) was 0.891 and the relative viability (EKVX; first compound 0.05 µM) was 0.84. For the same molecule, the relative viability (EKVX; first compound 0.1581 µM) was 0.456, the relative viability (EKVX; first compound 0.5 µM) was 0.786 and the relative viability (BEN; first compound 0.005 µM) was 0.559. It also gave a relative viability (BEN; first compound 0.01581 µM) of 0.789, a relative viability (BEN; first compound 0.05 µM) of 0.731 and a relative viability (BEN; first compound 0.1581 µM) of 0.25. For the same molecule, the relative viability (BEN; first compound 0.5 µM) was 0.456, the relative viability (HCC-827; first compound 0.005 µM) was 0.994 and the relative viability (HCC-827; first compound 0.01581 µM) was 1.09. It also gave a relative viability (HCC-827; first compound 0.05 µM) of 1.02, a relative viability (HCC-827; first compound 0.1581 µM) of 1.09 and a relative viability (HCC-827; first compound 0.5 µM) of 1.01. The relative viability (NCI-H1975; first compound 0.005 µM) was 0.938, the relative viability (NCI-H1975; first compound 0.01581 µM) was 0.967 and the relative viability (NCI-H1975; first compound 0.05 µM) was 1.04. The relative viability (NCI-H1975; first compound 0.1581 µM) was 0.965, the relative viability (NCI-H1975; first compound 0.5 µM) was 0.918 and the relative viability (NCI-H1437; first compound 0.005 µM) was 1.1. It also gave a relative viability (NCI-H1437; first compound 0.01581 µM) of 1.22, a relative viability (NCI-H1437; first compound 0.05 µM) of 1.18 and a relative viability (NCI-H1437; first compound 0.1581 µM) of 1.24. For the same molecule, the relative viability (NCI-H1437; first compound 0.5 µM) was 1.25, the relative viability (NCI-H2087; first compound 0.005 µM) was 1.04 and the relative viability (NCI-H2087; first compound 0.01581 µM) was 1.12. The relative viability (NCI-H2087; first compound 0.05 µM) was 1.11, the relative viability (NCI-H2087; first compound 0.1581 µM) was 0.957 and the relative viability (NCI-H2087; first compound 0.5 µM) was 0.998. For the same molecule, the relative viability (LU99A; first compound 0.005 µM) was 0.663, the relative viability (LU99A; first compound 0.01581 µM) was 0.747 and the relative viability (LU99A; first compound 0.05 µM) was 0.836. For the same molecule, the relative viability (LU99A; first compound 0.1581 µM) was 0.653, the relative viability (LU99A; first compound 0.5 µM) was 0.812 and the relative viability (H3255; first compound 0.005 µM) was 0.831. For the same molecule, the relative viability (H3255; first compound 0.01581 µM) was 0.839, the relative viability (H3255; first compound 0.05 µM) was 0.907 and the relative viability (H3255; first compound 0.1581 µM) was 0.66. The relative viability (H3255; first compound 0.5 µM) was 0.735, the relative viability (LCLC-97TM1; first compound 0.005 µM) was 0.904 and the relative viability (LCLC-97TM1; first compound 0.01581 µM) was 0.939. The relative viability (LCLC-97TM1; first compound 0.05 µM) was 0.92, the relative viability (LCLC-97TM1; first compound 0.1581 µM) was 0.982 and the relative viability (LCLC-97TM1; first compound 0.5 µM) was 0.928. It also gave a relative viability (EPLC-272H; first compound 0.005 µM) of 0.61, a relative viability (EPLC-272H; first compound 0.01581 µM) of 0.76 and a relative viability (EPLC-272H; first compound 0.05 µM) of 0.724. For the same molecule, the relative viability (EPLC-272H; first compound 0.1581 µM) was 0.694 and the relative viability (EPLC-272H; first compound 0.5 µM) was 0.655.
